Measurements taken from patent publication US10287269B2, “Pyrazolyl pyrimidinone compounds as PDE2 inhibitors” (Merck Sharp & Dohme Corp., priority 2015, dated 2019).

biological target: T1, human PDE2A1 (Homo sapiens, UniProt O00408); test: PDE2 IMAP FP inhibition assay, human enzyme (PDE selectivity panel format); format: biochemical; conditions: Lab A; read-out: Human PDE2 Ki (nM) Lab A
T1 construct: GST; purchased BPS Bioscience (San Diego, Calif.) 60020; host or cells: insect cells
In short: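 GST-tagged human PDE2A1 from insect cells, run at room temperature in 10 mM Tris pH 7.2, 10 mM MgCl2, 1 mM DTT with 50 nM FAM-cAMP plus 1000 nM cGMP for 60 min. IMAP fluorescence polarization read-out; apparent Ki derived using apparent KM 10,000 nM.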

T1 sequence (O00408 1-920 isoform O00408-2): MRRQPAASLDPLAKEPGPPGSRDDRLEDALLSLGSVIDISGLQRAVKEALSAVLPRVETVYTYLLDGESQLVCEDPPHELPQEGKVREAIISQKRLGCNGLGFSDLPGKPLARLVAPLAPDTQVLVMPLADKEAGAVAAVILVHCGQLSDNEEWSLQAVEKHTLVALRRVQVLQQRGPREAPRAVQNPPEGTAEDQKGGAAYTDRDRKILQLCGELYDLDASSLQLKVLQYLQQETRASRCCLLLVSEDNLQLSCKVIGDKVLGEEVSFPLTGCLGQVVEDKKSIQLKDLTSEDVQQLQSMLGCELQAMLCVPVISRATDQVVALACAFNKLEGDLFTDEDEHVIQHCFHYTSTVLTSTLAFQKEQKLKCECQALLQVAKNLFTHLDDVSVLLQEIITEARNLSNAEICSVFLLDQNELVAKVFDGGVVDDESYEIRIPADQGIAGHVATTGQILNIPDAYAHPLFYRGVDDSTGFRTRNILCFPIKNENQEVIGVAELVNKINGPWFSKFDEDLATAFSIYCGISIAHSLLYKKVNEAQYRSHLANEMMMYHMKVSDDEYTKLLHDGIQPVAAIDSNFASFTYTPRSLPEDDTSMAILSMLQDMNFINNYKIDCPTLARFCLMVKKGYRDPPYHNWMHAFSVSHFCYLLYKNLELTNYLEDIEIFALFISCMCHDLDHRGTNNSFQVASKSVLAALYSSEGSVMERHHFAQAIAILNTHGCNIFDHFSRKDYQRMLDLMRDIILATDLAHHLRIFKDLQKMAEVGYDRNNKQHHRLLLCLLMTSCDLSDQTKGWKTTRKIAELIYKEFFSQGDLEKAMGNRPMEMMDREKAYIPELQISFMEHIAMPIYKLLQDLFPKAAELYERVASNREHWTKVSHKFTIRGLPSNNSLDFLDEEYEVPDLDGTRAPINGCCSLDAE

Structure (SMILES) | Ki [nM]
COc1ccc(Cc2nc(-c3cnn(C(C)c4ccc(C(F)(F)F)cc4F)c3)cc(=O)[nH]2)cc1 (single isomer, unassigned) [Example 139, (S)- or (R)-6-(1-(1-(2-fluoro-4-(trifluoromethyl)phenyl)ethyl)-1H-pyrazol-4-yl)-2-(4-methoxybenzyl)pyrimidin-4(3H)-one] | 41.6
COc1cccc(Cc2nc(-c3cnn(C(C)c4ccc(C(F)(F)F)cc4F)c3)cc(=O)[nH]2)c1 (single isomer, unassigned) [Example 140, (R)- or (S)-6-(1-(1-(2-fluoro-4-(trifluoromethyl)phenyl)ethyl)-1H-pyrazol-4-yl)-2-(3-methoxybenzyl)pyrimidin-4(3H)-one] | 2.6
COc1cccc(Cc2nc(-c3cnn(C(C)c4ccc(C(F)(F)F)cc4F)c3)cc(=O)[nH]2)c1 (single isomer, unassigned) [Example 141, (S)- or (R)-6-(1-(1-(2-fluoro-4-(trifluoromethyl)phenyl)ethyl)-1H-pyrazol-4-yl)-2-(3-methoxybenzyl)pyrimidin-4(3H)-one] | 17.3
COc1cc(Cc2nc(-c3cnn(C(C)c4ccc(C(F)(F)F)cc4F)c3)cc(=O)[nH]2)ccc1F (single isomer, unassigned) [Example 142, (R)- or (S)-2-(4-fluoro-3-methoxybenzyl)-6-(1-(1-(2-fluoro-4-(trifluoromethyl)phenyl)ethyl)-1H-pyrazol-4-yl)pyrimidin-4(3H)-one] | 3.5
COc1cc(Cc2nc(-c3cnn(C(C)c4ccc(C(F)(F)F)cc4F)c3)cc(=O)[nH]2)ccc1F (single isomer, unassigned) [Example 143, (S)- or (R)-2-(4-fluoro-3-methoxybenzyl)-6-(1-(1-(2-fluoro-4-(trifluoromethyl)phenyl)ethyl)-1H-pyrazol-4-yl)pyrimidin-4(3H)-one] | 27.9
COc1ccc(Cc2nc(-c3cnn(C(C)c4ccc(C(F)(F)F)cc4F)c3)cc(=O)[nH]2)cc1F (single isomer, unassigned) [Example 146, (R)- or (S)-6-(1-(1-(2-fluoro-4-(trifluoromethyl)phenyl)ethyl)-1H-pyrazol-4-yl)-2-(3-fluoro-4-methoxybenzyl)pyrimidin-4(3H)-one] | 31.2
COc1ccc(Cc2nc(-c3cnn(C(C)c4ccc(C(F)(F)F)cc4F)c3)cc(=O)[nH]2)cc1F (single isomer, unassigned) [Example 147, (S)- or (R)-6-(1-(1-(2-fluoro-4-(trifluoromethyl)phenyl)ethyl)-1H-pyrazol-4-yl)-2-(3-fluoro-4-methoxybenzyl)pyrimidin-4(3H)-one] | 3.3
Cc1ccc(C(C)n2cc(-c3cc(=O)[nH]c(C)n3)cn2)c(Cl)c1 (single isomer, unassigned) [Example 148, (R)- or (S)-6-(1-(1-(2-chloro-4-methylphenyl)ethyl)-1H-pyrazol-4-yl)-2-methylpyrimidin-4(3H)-one] | 61
CC(C)c1nc(-c2cnn(C(C)c3ccc(C(F)(F)F)cc3F)c2)cc(=O)[nH]1 (centres unmarked) [Example 9, 6-(1-(1-(2-Fluoro-4-(trifluoromethyl)phenyl)ethyl)-1H-pyrazol-4-yl)-2-isopropylpyrimidin-4(3H)-one] | 104
CC(c1ccc(C(F)(F)F)cc1F)n1cc(-c2cc(=O)[nH]c(C3CC3)n2)cn1 (centres unmarked) [Example 10] | 19.5
CCC(c1ccc(C(F)(F)F)cc1F)n1cc(-c2cc(=O)[nH]c(C)n2)cn1 (centres unmarked) [Example 33, 6-(1-(1-(2-fluoro-4-(trifluoromethyl)phenyl)propyl)-1H-pyrazol-4-yl)-2-methylpyrimidin-4(3H)-one] | 32

same assay, conditions: Lab B; read-out: Human PDE2 Ki (nM) Lab B

Structure (SMILES) | Ki [nM]
COc1ccc(Cc2nc(-c3cnn(C(C)c4ccc(C(F)(F)F)cc4F)c3)cc(=O)[nH]2)cc1 (single isomer, unassigned) [Example 139, (S)- or (R)-6-(1-(1-(2-fluoro-4-(trifluoromethyl)phenyl)ethyl)-1H-pyrazol-4-yl)-2-(4-methoxybenzyl)pyrimidin-4(3H)-one] | 24.5
Cc1nc(-c2cnn(Cc3ccc(OC(F)(F)F)cc3)c2)cc(=O)[nH]1 [Example 29, 2-Methyl-6-(1-(4-(trifluoromethoxy)benzyl)-1H-pyrazol-4-yl)pyrimidin-4(3H)-one] | 829
Cc1nc(-n2cc(Cc3ccc(OC(F)(F)F)cc3)cn2)cc(=O)[nH]1 [Example 30, 2-Methyl-6-(4-(4-(trifluoromethoxy)benzyl)-1H-pyrazol-1-yl)pyrimidin-4(3H)-one] | 1110
